Test results from patent publication US9468661B2, “Pyrrolidine derivatives and their use as complement pathway modulators” (priority 2012, dated 2016).
Read-outs that look alike come from different tables or passages of the source.

Biological target: human factor D (Homo sapiens (Human), UniProt P00746)
Experiment: biochemical
Assay type: biochemical
Conditions: recombinant human factor D 10 nM, substrate Z-Lys-thiobenzyl, fluorescence
Method in brief: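 E. coli-expressed recombinant human factor D (10 nM) was preincubated with compound for 1 h at room temperature in 0.1 M Hepes pH 7.5, 1 mM MgCl2, 1 M NaCl, 0.05% CHAPS. Fluorescence (ex 485/em 535 nm) was read after adding Z-Lys-thiobenzyl (200 μM) and 2,4-dinitrobenzenesulfonyl-fluoresceine (25 μM); IC50 came from percent inhibition versus concentration.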

[1] = Factor D inhibition data using Method 1, read-out: IC50

Chain of human factor D (P00746 26-253): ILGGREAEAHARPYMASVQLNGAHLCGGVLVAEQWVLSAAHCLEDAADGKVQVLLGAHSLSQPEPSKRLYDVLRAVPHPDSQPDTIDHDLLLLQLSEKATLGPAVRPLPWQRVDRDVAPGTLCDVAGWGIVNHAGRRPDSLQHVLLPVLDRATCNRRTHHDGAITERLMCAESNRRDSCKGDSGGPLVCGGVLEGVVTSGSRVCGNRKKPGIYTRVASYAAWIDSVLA

| SMILES | IC50 [1] [nM] | IC50 (IC50, Factor D inhibition data using Method 1) [nM] |
| --- | --- | --- |
| Cc1nccc2c(C(N)=O)nn(CC(=O)N3[C@@H]4C[C@@H]4C[C@H]3C(=O)NC[C@H]3CC3(Cl)Cl)c12 [Example 112, 1-(2-{(1R,3S,5R)-3-[((R)-2,2-Dichloro-cyclopropylmethyl)-carbamoyl]-2-aza-bicyclo[3.1.0]hex-2-yl}-2-oxo-ethyl)-7-methyl-1H-pyrazolo[3,4-c]pyridine-3-carboxylic acid amide] | 188 | – |
| Cc1ccc2c(C(N)=O)nn(CC(=O)N3[C@@H]4C[C@@H]4C[C@H]3C(=O)NC[C@H]3CC3(Cl)Cl)c2c1 [Example 113, 1-(2-{(1R,3S,5R)-3-[((R)-2,2-Dichloro-cyclopropylmethyl)-carbamoyl]-2-aza-bicyclo[3.1.0]hex-2-yl}-2-oxo-ethyl)-6-methyl-1H-indazole-3-carboxylic acid amide] | 74 | – |
| NC(=O)c1nn(CC(=O)N2[C@@H]3C[C@@H]3C[C@H]2C(=O)NC[C@H]2CC2(Cl)Cl)c2cc(Cl)ccc12 [Example 114, 6-Chloro-1-(2-{(1R,3S,5R)-3-[((R)-2,2-dichloro-cyclopropylmethyl)-carbamoyl]-2-aza-bicyclo[3.1.0]hex-2-yl}-2-oxo-ethyl)-1H-indazole-3-carboxylic acid amide] | 40 | – |
| [2H]C([2H])([2H])[C@@H](NC(=O)[C@@H]1C[C@H]2C[C@H]2N1C(=O)Cn1nc(C(N)=O)c2ccccc21)[C@H]1CC1(Cl)Cl [Example 121, 1-(2-{(1R,3S,5R)-3-[(R)-1-((R)-2,2-Dichloro-cyclopropyl)-ethyl-2,2,2-D3-carbamoyl]-2-aza-bicyclo[3.1.0]hex-2-yl}-2-oxo-ethyl)-1H-indazole-3-carboxylic acid amide] | – | 14 |
| CC(=O)c1nn(CC(=O)N2[C@@H]3C[C@@H]3C[C@H]2C(=O)NC[C@H]2CC2(Cl)Cl)c2ccc(O)cc12 [Example 122, (1R,3S,5R)-2-[2-(3-Acetyl-5-hydroxy-indazol-1-yl)-acetyl]-2-aza-bicyclo[3.1.0]hexane-3-carboxylic acid ((R)-2,2-dichloro-cyclopropylmethyl)-amide] | 58 | – |
| NC(=O)c1nn(CC(=O)N2[C@@H]3C[C@@H]3C[C@H]2C(=O)N[C@H](CO)C23CC(C(F)(F)F)(C2)C3)c2ccccc12 [Example 123, 1-(2-{(1R,3S,5R)-3-[(S)-2-Hydroxy-1-(3-trifluoromethyl-bicyclo[1.1.1]pent-1-yl)-ethylcarbamoyl]-2-aza-bicyclo[3.1.0]hex-2-yl}-2-oxo-ethyl)-1H-indazole-3-carboxylic acid amide] | 1240 | – |
